Structures can show the parent of a compound that is named as a salt. Where two headings read alike, the source gives them in different places.
What was measured:
CYP 2D6 = CYP 2D6 (Homo sapiens, UniProt P10635); assay: Inhibition of cytochrome P450 enzyme in human liver microsomes, CYP 2D6; details: read-out: CYP 2D6 IC50; human liver microsomes; substrate Dextromethorphan
CYP 3A4 = CYP 3A4 (Homo sapiens, UniProt P08684); details: read-out: CYP 3A4 IC50, human liver microsomes
CYP 2C9 = CYP 2C9 (Homo sapiens, UniProt P11712); assay: Inhibition of cytochrome P450 enzyme in human liver microsomes, CYP 2C9; details: read-out: CYP 2C9 IC50; human liver microsomes; substrate Diclofenac
CYP 1A2 = target: T1, CYP 1A2 (Homo sapiens, UniProt P05177); assay: Inhibition of cytochrome P450 enzyme in human liver microsomes, CYP 1A2; details: read-out: CYP 1A2 IC50; human liver microsomes; substrate Finacetin
T1 sequence (P05177 1-516): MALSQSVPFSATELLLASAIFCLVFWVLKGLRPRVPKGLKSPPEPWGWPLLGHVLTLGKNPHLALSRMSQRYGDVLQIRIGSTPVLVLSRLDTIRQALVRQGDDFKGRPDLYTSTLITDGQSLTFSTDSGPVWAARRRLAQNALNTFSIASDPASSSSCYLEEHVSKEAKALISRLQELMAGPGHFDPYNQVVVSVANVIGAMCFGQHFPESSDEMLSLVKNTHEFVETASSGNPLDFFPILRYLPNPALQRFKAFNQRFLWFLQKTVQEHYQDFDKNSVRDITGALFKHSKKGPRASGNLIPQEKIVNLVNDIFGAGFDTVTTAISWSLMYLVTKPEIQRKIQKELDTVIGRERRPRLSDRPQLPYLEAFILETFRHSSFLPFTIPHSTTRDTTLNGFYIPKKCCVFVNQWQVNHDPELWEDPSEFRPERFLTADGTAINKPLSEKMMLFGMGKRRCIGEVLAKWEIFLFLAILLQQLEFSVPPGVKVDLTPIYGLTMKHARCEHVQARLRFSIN

CYP 2C19 = CYP 2C19 (Homo sapiens, UniProt P33261); assay: Inhibition of cytochrome P450 enzyme in human liver microsomes, CYP 2C19; details: read-out: CYP 2C19 IC50; human liver microsomes; substrate (S)-mephenytoin
hERG potassium channel = hERG potassium channel (Homo sapiens, UniProt Q12809); assay: hERG potassium channel whole-cell patch clamp (HEK293); format: cell-based; set-up: expressed in transfected cells; host or cells: HEK293 cell line; details: for IC50: HEK293 cells stably expressing hERG, whole-cell patch clamp, room temperature, read-out: Half-inhibition concentration of compounds to be tested on hERG (IC50)
Source text: The rapidly activated potassium channel encoded by human ether-a-go-go-related gene (hERG) is an important ion channel involved in the formation of phase 3 repolarization of myocardial action potential. […] Drug-induced delayed ventricular repolarization may cause fatal arrhythmia-torsade de pointes in some cases. According to statistics, about 25-40% of the lead compounds show different degrees of hERG-related toxicity, and many drugs are withdrawn from the market because they may lead to the risk of QT interval extension. At present, National Medical Products Administration also requires hERG/IKr safety evaluation data before clinical trial application (IND) of new drugs under study. • 1. Whole-cell patch clamp technique is used to study the inhibitory effect of compounds on hERG potassium channels: • 1) the compound to be tested is stored with physiological saline prepared into 10 mM liquid. The test stock solution is diluted with physiological saline into 3 mM, 1 mM and 0.3 mM diluents in turn. […] The old culture medium removed and is washed once with PBS, then added with 1 mL TrypLE™ Express solution and incubated at 37° C. for about 0.5 minutes. When the cells are detached from the bottom of the dish, about 5 ml complete medium preheated is added at 37° C. The cell suspension is gently blown with a straw to separate the aggregated cells. The cell suspension is transferred to a sterile centrifuge tube and centrifuged at 1000 rpm for 5 minutes to collect cells. […] The clamping voltage is depolarized from −80 mV to −50 mV for 0.5 seconds (as leakage current detection), then stepped to 30 mV for 2.5 seconds, and then quickly recovered to −50 mV for 4 seconds, which can excite the tail current of hERG channel. Data are collected repeatedly every 10s to observe the effect of drugs on hERG tail current. 0.5 seconds-50 mV stimulation is used as leakage current detection. The test data are collected by IPA amplifier (Sutter Instrument) and stored in SutterPatch software.
Capillary glass tube is drawn into recording electrode by microelectrode drawing instrument. Under the inverted microscope, the microelectrode manipulator is operated to contact the recording electrode with the cell, and negative pressure suction is given to form a GΩ seal. After the GΩ seal is formed, rapid capacitance compensation is carried out, and then negative pressure is continuously applied to break the cell membrane, forming a whole cell recording mode. Then the slow capacitance is compensated and the film capacitance and series resistance are recorded. No leakage compensation is given.
When the hERG current recorded in the whole cell is stable, the drug is administered, and the next concentration is detected after each drug concentration acts for 5 minutes (or the current is stable), and multiple concentrations are detected for each test compound. The cover glass covered with cells is placed in the recording bath in an inverted microscope, and the test compound and the external liquid containing no compound flowed through the recording bath from low concentration to high concentration by gravity perfusion method, so as to act on the cells, and liquid exchange is carried out by using a vacuum pump during recording. The current detected by each cell in the external fluid without compounds is used as its own control group.
At least two cells are used to detect each concentration independently and repeatedly twice. All electrophysiological tests are conducted at room temperature.
Firstly, the current after each drug concentration and the blank control current are standardized
[formula] followed by the calculation of the inhibition rate
[formula] corresponding to each drug concentration, the average and standard deviation for each concentration, and the semi-inhibition concentration of each compound with the following equation: […]
The dose-dependent effect is nonlinear fitted by the above equation, and IC50 is semi-inhibitory concentration.

κOR = target: T2, κOR (Homo sapiens, UniProt P41145); assay: Opioid receptor competitive binding test, κOR; details: compound at 10 μM; [3H]-labeled ligand; CHO cell membranes; ± SD of three measurements
T2 construct: expressed in transfected cells; host or cells: CHO cells
Protocol: (§1) CHO cells expressing p opioid receptor, δ opioid receptor and K opioid receptor are cultured in a 10 cm^2 Petri dish (F-12 medium+10% newborn bovine serum) for several days, and the culture solution is sucked after the cells grew to the bottom of the dish. 3 ml PBS/EDTA solution (0.1M NaCl, 0.01M NaH2PO4, 0.04% EDTA) is added for digestion for 3-5 minutes. The cells are blown with a straw to get fall off completely, collected in a 40 ml centrifuge tube, centrifuged at 5000 rpm for 5 minutes, and removed with the supernatant. The centrifuge tube is added with ice-cold homogenate (50 mM HEPES PH 7.4, 3 mM MgCl2, 1 mM EGTA). The solution and precipitate are transferred to homogenizer for homogenization; Then the homogenate is transferred into a centrifuge tube, centrifuged at 18000 rpm for 15 minutes, and centrifuged twice; the obtained precipitate is added with an appropriate amount of buffer solution of 50 mM Tris-HCl and pH 7.4, homogenized and sub-packaged in centrifuge tubes. The product is stored in a refrigerator at −70° C. for later use.
(§2) 20-30 μg expressed membrane receptor protein and [3H]-labeled ligand (1-2 nM) are added to the total binding tube, added with 1 μM of corresponding ligand to the corresponding nonspecific binding tube. Various screened opioid ligand drugs (see the drug compounds in Table 1 below) are added to the sample tube with 100 μL final volume. The sample is incubated at 30° C. for 30 minutes, and the reaction is terminated in ice water. The glass fiber filter paper gF/C (whatman) is used for negative pressure filtration on Millipore sample collector. The sample is eluted with 4 ml 50 mm tris-HCl (pH 7.4) for three times, dried with the filter paper, put in 0.5 ml Eppendorf tube and added with 0.5 ml lipophilic scintillation liquid. The radioactive intensity is measured with PERKIN ELMER PRI-CARB 2910 liquid scintillation counter with calculation of the inhibition rate. The experiment is repeated for more than three times, with three compound tubes in each group. Inhibition rate(or binding rate)=(total binding rate dpm−sample tube dpm)/(total binding tube dpm-nonspecific binding tube dpm)×100%
(§3) IC50 is calculated with Prism 5.0 software. The Ki value is calculated according to the following formula: Ki=IC50/(1^+[L]/Kd), wherein [L] is the concentration of the added labeled ligand, and Kd is the equilibrium dissociation parameter of the labeled ligand.

δOR = target: T3, δOR (Homo sapiens, UniProt P41143); assay: Opioid receptor competitive binding test, δOR; details: compound at 10 μM; [3H]-labeled ligand; CHO cell membranes; ± SD of three measurements
T3 construct: expressed in transfected cells; host or cells: CHO cells
Protocol: as §1, §2, §3

μOR = target: T4, μOR (Homo sapiens, UniProt P35372); assay: Opioid receptor competitive binding test, μOR; details: compound at 10 μM; [3H]-labeled ligand; CHO cell membranes; ± SD of three measurements
T4 construct: expressed in transfected cells; host or cells: CHO cells
Protocol: as §1, §2, §3

Female Kunming mice = assay: Hot plate analgesia test in mice; format: in vivo; details: intraperitoneal, 55° C. hot plate; for ED50: Mus musculus, ip; for Maximum analgesic effective percentage (% MPE), hot plate: 10 mg/kg
Protocol: Female Kunming mice weighing about 20 g are placed on a hot plate instrument preheated to 55° C., and the latency of licking hind feet or lifting hind feet is used as the pain threshold index. Animals are screened before the experiment, and animals with latency less than 5 s or more than 30 s are excluded. To prevent foot burns, the longest observation time is set to 60s. The basic pain threshold is the average of two measurements, and the interval between the two measurements is 5 minutes. The pain threshold of mice in each group is determined at 15 minutes, 30 minutes, 60 minutes and 120 minutes after intraperitoneal administration. The effective percentage of analgesia (% MPE) is calculated according to the following formula
[formula] According to the effective percentage of analgesia, the ED50 value is calculated by graphpad prism 5.0 software.

## COc1cccc([C@]2(O)CCN(S(=O)(=O)Cc3ccccc3)C[C@H]2CN(C)C)c1.Cl [Example 20 of CN201911076305.X, (3R, 4S)-1-(benzylsulfonyl)-3-(dimethylamino)methyl)-4-(3-methoxyphenyl)-4-piperidinol hydrochloride, reference compound]
CYP 2D6
  IC50: 9.61 µM
CYP 3A4; substrate midazolam
  IC50: 32.3 µM
CYP 3A4; substrate testosterone
  IC50: 46.4 µM
CYP 2C9
  IC50: > 50 µM
CYP 1A2
  IC50: > 50 µM
CYP 2C19
  IC50: > 50 µM

## [2H]C([2H])([2H])N(C)CC1CN(S(=O)(=O)Cc2ccccc2)CCC1(O)c1cccc(OC)c1 (stereo not drawn) [I-1hydrochloride]
hERG potassium channel
  hERG inhibition grade: μM((Weak inhibition)
  IC50: 12.9 µM
κOR
  κOR binding rate: 22.5 ± 3.2%
δOR
  δOR binding rate: 11.4 ± 1.7%
μOR
  μOR binding rate: 23.95 ± 3.8%
Female Kunming mice
  ED50: 0.62 mg/kg

## [2H]C([2H])([2H])Oc1cccc(C2(O)CCN(S(=O)(=O)Cc3ccccc3)CC2CN(C([2H])([2H])[2H])C([2H])([2H])[2H])c1 (stereo not drawn) [I-3hydrochloride]
hERG potassium channel
  hERG inhibition grade: μM((Weak inhibition)
  IC50: 16.6 µM
κOR
  κOR binding rate: 14.9 ± 0.9%
δOR
  δOR binding rate: 8.6 ± 1.2%
μOR
  μOR binding rate: 22.75 ± 2.3%
Female Kunming mice
  ED50: 0.82 mg/kg

## [2H]C([2H])([2H])N(CC1CN(S(=O)(=O)Cc2ccccc2)CCC1(O)c1cccc(OC)c1)C([2H])([2H])[2H] (stereo not drawn) [I-4hydrochloride]
hERG potassium channel
  hERG inhibition grade: μM((Weak inhibition)
  IC50: 11 µM
κOR
  κOR binding rate: 18.5 ± 3.2%
δOR
  δOR binding rate: 10.1 ± 0.6%
μOR
  μOR binding rate: 25.9 ± 3.9%
Female Kunming mice
  Maximum analgesic effective percentage (% MPE), hot plate: 100%

## [2H]C([2H])([2H])Oc1cccc(C2(O)CCN(C(=O)Cc3cc(F)c(F)cc3F)CC2CN(C([2H])([2H])[2H])C([2H])([2H])[2H])c1 (stereo not drawn) [I-7hydrochloride]
hERG potassium channel
  hERG inhibition grade: μM((Weak inhibition)
  IC50: 21.6 µM
κOR
  κOR binding rate: 15.9 ± 0.7%
δOR
  δOR binding rate: 9.9 ± 0.5%
μOR
  μOR binding rate: 20.7 ± 2.2%
Female Kunming mice
  ED50: 0.89 mg/kg

## [2H]C([2H])([2H])N(CC1CN(C(=O)Cc2cc(F)c(F)cc2F)CCC1(O)c1cccc(OC)c1)C([2H])([2H])[2H] (stereo not drawn) [I-8hydrochloride]
hERG potassium channel
  hERG inhibition grade: μM((Weak inhibition)
  IC50: 16.8 µM
κOR
  κOR binding rate: 16.4 ± 2.6%
δOR
  δOR binding rate: 8.2 ± 0.9%
μOR
  μOR binding rate: 22.8 ± 2.8%
Female Kunming mice
  Maximum analgesic effective percentage (% MPE), hot plate: 100%
